According to patent US8993637B2 (priority 2013, dated 2015):

Test system: RAW 264.7 macrophages
Experiment: ROS production assay in LPS-activated macrophages
Format: cell-based, murine
Settings: NAC 10 mM; 30 min before and during LPS (1 μg/ml) stimulation, 0-4 h
Method: ROS production was measured as the relative fluorescence intensity. […] The data are expressed as the mean±SD for three separate experiments. *p<0.05, **p<0.01 compared to the LPS-treated group. RAW-Blue™ cells (Murine macrophages RAW264.7 stably transfected with the NF-κB reporter gene) purchased from InvivoGen (San Diego, Calif.). LPS (from Escherichia coli 0111:B4) and mouse antibodies against phospho-ERK1/2, phospho-JNK1/2, and phospho-p38 (all from Sigma, St. Louis, Mo.). Rabbit antibodies against mouse ERK1, JNK1, and p38, and HRP-labeled second antibodies were purchased from Santa Cruz Biotechnology, and IL-1β, IL-6, and TNF-α ELISA kits from R&D Systems. ROS production assay, NO production assay, NF-κB reporter assay, ELISA, and Western blotting were performed as described previously.

SMILES: CC(=O)N[C@@H](CS)C(=O)O [NAC, N-acetyl cysteine, reference compound]
- LPS-induced increase in ROS production: reduced
